From ChEMBL document CHEMBL1201862, “PubChem BioAssay data set” (2004)
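Exposure lasted 48 hours, with cells grown in 96-well plates and compounds tested at five concentrations. GI50 = concentration required for 50% inhibition of growth.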 The source made the active and inactive calls. Cut-off read from the data, not from the text of the source: active = GI50 up to about 1.1 µM and inactive = higher.

Tests used:
Assay in all cases: NCI anticancer screen, dose series, 48 h
SNB-75 = system: SNB-75
MOLT-4 = system: MOLT-4
TK-10 = system: TK-10
DLD-1 = system: DLD-1
UACC-257 = system: UACC-257
NCI-H460 = system: NCI-H460
SNB-19 = system: SNB-19
786-0 = system: 786-0
XF498 = system: XF498
KM12 = system: KM12
UACC-62 = system: UACC-62
HCT-116 = system: HCT-116
SF-295 = system: SF-295
K562 = system: K562
DMS-273 = system: DMS-273
SF-539 = system: SF-539
COLO 205 = system: COLO 205
SN12C = system: SN12C
HCC 2998 = system: HCC 2998
IGROV-1 = system: IGROV-1
CAKI-1 = system: CAKI-1
SK-MEL-28 = system: SK-MEL-28
NCI-H226 = system: NCI-H226
RPMI-8226 = system: RPMI-8226
SR = system: SR
M14 = system: M14
HCT-15 = system: HCT-15
SW-620 = system: SW-620
UO-31 = system: UO-31
SK-OV-3 = system: SK-OV-3
HT-29 = system: HT-29
Malme-3M = system: Malme-3M
A549 = system: A549
OVCAR-3 = system: OVCAR-3
SK-MEL-2 = system: SK-MEL-2
ACHN = system: ACHN
OVCAR-5 = system: OVCAR-5
OVCAR-8 = system: OVCAR-8
SF-268 = system: SF-268
LXFL 529 = system: LXFL 529
OVCAR-4 = system: OVCAR-4
HOP-92 = system: HOP-92
NCI-H23 = system: NCI-H23
LOX IMVI = system: LOX IMVI
HL-60 = system: HL-60
NCI-H522 = system: NCI-H522
HOP-62 = system: HOP-62
KM-20L2 = system: KM-20L2

For O=C(CO)CC(=O)C(=O)Nc1cccc(C(F)(F)F)c1, the GI50 (SNB-75) was > 100 µM (inactive), the GI50 (MOLT-4) was > 100 µM (inactive) and the GI50 (TK-10) was > 100 µM (inactive). For the same compound, the GI50 (DLD-1) was > 100 µM (inactive), the GI50 (UACC-257) was > 100 µM (inactive) and the GI50 (NCI-H460) was > 100 µM (inactive). For the same compound, the GI50 (SNB-19) was > 100 µM (inactive), the GI50 (786-0) was > 100 µM (inactive) and the GI50 (XF498) was > 100 µM (inactive). For the same compound, the GI50 (KM12) was > 100 µM (inactive), the GI50 (UACC-62) was > 100 µM (inactive) and the GI50 (HCT-116) was > 100 µM (inactive). For the same compound, the GI50 (SF-295) was > 100 µM (inactive), the GI50 (K562) was > 100 µM (inactive) and the GI50 (DMS-273) was > 100 µM (inactive). The GI50 (SF-539) was > 100 µM (inactive), the GI50 (COLO 205) was > 100 µM (inactive) and the GI50 (SN12C) was > 100 µM (inactive). The GI50 (HCC 2998) was > 100 µM (inactive), the GI50 (IGROV-1) was > 100 µM (inactive) and the GI50 (CAKI-1) was > 100 µM (inactive). For the same compound, the GI50 (SK-MEL-28) was > 100 µM (inactive), the GI50 (NCI-H226) was > 100 µM (inactive) and the GI50 (RPMI-8226) was > 100 µM (inactive). For the same compound, the GI50 (SR) was > 100 µM (inactive), the GI50 (M14) was > 100 µM (inactive) and the GI50 (HCT-15) was greater than 100 µM. For the same compound, the GI50 (SW-620) was > 100 µM (inactive), the GI50 (UO-31) was > 100 µM (inactive) and the GI50 (SK-OV-3) was > 100 µM (inactive). The GI50 (HT-29) was > 100 µM (inactive), the GI50 (Malme-3M) was > 100 µM (inactive) and the GI50 (A549) was > 100 µM (inactive). The GI50 (OVCAR-3) was > 100 µM (inactive), the GI50 (SK-MEL-2) was > 100 µM (inactive) and the GI50 (ACHN) was > 100 µM (inactive). For the same compound, the GI50 (OVCAR-5) was > 100 µM (inactive), the GI50 (OVCAR-8) was > 100 µM (inactive) and the GI50 (SF-268) was > 100 µM (inactive). The GI50 (LXFL 529) was > 100 µM (inactive), the GI50 (OVCAR-4) was > 100 µM (inactive) and the GI50 (HOP-92) was > 100 µM (inactive). For the same compound, the GI50 (NCI-H23) was > 100 µM (inactive), the GI50 (LOX IMVI) was > 100 µM (inactive) and the GI50 (HL-60) was > 100 µM (inactive). The GI50 (NCI-H522) was > 100 µM (inactive), the GI50 (HOP-62) was > 100 µM (inactive) and the GI50 (KM-20L2) was > 100 µM (inactive).
